# Key:
# [1] = test system: serotonin (5-HT) uptake by rat brain synaptosome; experiment: Serotonin (5-HT) uptake inhibitory activity by rat brain synaptosome; assay type: biochemical; conditions: test compound 300 nM, tritium labeled 5-HT 8 nM, 10 minutes uptake at 37° C.
# Method: Measurement of serotonin (5-HT) uptake inhibitory activity of a test compound by rat brain synaptosome
# Wistar male rats were decapitated, the brain was retrieved and frontal cortex was dissected out, and it was homogenized in 0.32 M sucrose solution of a weight 20 times of the weight of the tissue using a Potter type homogenizer. The homogenate was centrifuged at 4° C., 1,000×g for 10 minutes, the obtained supernatant was further centrifuged at 4° C., 20,000×g for 20 minutes, and the pellet was suspended in an incubation buffer (20 mM Hepes buffer (pH 7.4) containing 10 mM glucose, 145 mM sodium chloride, 4.5 mM potassium chloride, 1.2 mM magnesium chloride, 1.5 mM calcium chloride), which was used as crude synaptosome fraction.
# 5-HT uptake reaction was performed in a volume of 200 μl using a 96-well round bottom plate and pargyline (final concentration 10 μM) and sodium ascorbate (final concentration 0.2 mg/ml) were contained in the incubation buffer upon reaction and used.
# Incubation buffer (total counting), non-labeled 5-HT (final concentration 10 μM, non-specific counting) and the diluted test compound (final concentration 300 nM) were added to each well. One-tenth quantity of the final volume of the synaptosome fraction was added and after preincubated at 37° C. for 10 minutes, tritium labeled 5-HT solution (final concentration 8 nM) was added and uptake reaction was started at 37° C. The uptake time was 10 minutes and the reaction was terminated by vacuum filtration through a 96-well fiber glass filter paper plate, and after the filter paper was washed with cold normal saline, it was dried enough and Microscint0 (Perkin-Elmer) was added to the filter and remaining radioactivity on the filter was measured.
# Serotonin uptake inhibitory activity (%) was calculated from the radioactivity of total counting as 100%, of non-specific counting as 0%, and of counting obtained with test compound. % of inhibition of 5-HT(%)=100−[(Count obtained with test compound−Nonspecific count (0% Uptake))/(Total count (100% Uptake)−Nonspecific count (0% Uptake))]×100 The results are shown in the next Table 314.
# [2] = molecular target: T1, Serotonin 5-HT2A receptor (Rattus norvegicus, UniProt P14842); experiment: Serotonin 5-HT2A receptor binding assay ([3H]-Ketanserin); conditions: Serotonin 5-HT2A receptor binding test, rat frontal cortex membrane, Ki calculated from IC50 by Cheng-Prussoff formula
# T1 construct: from tissue; host or cells: Wistar rat brain, frontal cortex membranes
# Procedure, shortened: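 Rat frontal cortex membranes incubated with [3H]-ketanserin (final 1 to 3 nM) in 50 mM Tris-HCl pH 7.4, 1% DMSO, 37° C. for 20 minutes; bound radioactivity counted after filtration.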
# Dopamine D2 receptor = molecular target: T2, Dopamine D2 receptor (Rattus norvegicus, UniProt P61169); experiment: Dopamine D2 receptor binding assay ([3H]-raclopride); conditions: Dopamine D2 receptor binding test, rat corpus striatum membrane, Ki calculated from IC50 by Cheng-Prussoff formula
# T2 construct: from tissue; host or cells: Wistar rat brain, corpus striatum membranes
# Procedure, shortened: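 Wistar male rat striatal membranes incubated with [3H]-raclopride (final 1 to 2 nM) in 50 mM Tris-HCl with NaCl, KCl, CaCl2, MgCl2, pH 7.4, 1% DMSO, 1 h at room temperature; filtration and scintillation counting. Nonspecific binding with 10 μM (+)-butaclamol; IC50 converted to Ki by Cheng-Prussoff.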
# T1 sequence (P14842 whole entry): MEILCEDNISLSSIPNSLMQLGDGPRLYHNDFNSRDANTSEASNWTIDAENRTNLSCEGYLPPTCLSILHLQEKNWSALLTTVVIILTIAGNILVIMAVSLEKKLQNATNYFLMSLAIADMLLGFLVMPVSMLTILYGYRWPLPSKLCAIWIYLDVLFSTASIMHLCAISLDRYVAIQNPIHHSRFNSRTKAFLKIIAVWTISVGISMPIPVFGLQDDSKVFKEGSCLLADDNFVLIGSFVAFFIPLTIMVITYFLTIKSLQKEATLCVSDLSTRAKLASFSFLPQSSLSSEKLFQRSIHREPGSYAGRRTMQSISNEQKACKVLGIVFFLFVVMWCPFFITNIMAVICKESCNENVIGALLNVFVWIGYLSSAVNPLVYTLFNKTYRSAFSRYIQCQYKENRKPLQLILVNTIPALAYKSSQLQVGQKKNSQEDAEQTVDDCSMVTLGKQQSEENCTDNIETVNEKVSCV
# T2 sequence (P61169 whole entry): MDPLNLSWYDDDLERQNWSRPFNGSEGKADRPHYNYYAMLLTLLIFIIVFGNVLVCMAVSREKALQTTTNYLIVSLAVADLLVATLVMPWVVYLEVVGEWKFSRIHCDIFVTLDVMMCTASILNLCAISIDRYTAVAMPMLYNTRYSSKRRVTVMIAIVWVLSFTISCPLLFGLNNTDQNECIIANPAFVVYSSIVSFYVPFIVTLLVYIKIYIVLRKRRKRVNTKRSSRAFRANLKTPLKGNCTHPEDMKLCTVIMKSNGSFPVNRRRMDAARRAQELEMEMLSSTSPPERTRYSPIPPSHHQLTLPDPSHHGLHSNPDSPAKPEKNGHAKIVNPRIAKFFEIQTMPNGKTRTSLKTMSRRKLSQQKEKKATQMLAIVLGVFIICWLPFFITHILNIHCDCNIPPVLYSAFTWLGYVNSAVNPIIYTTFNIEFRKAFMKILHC
melting point,SMILES,Serotonin uptake inhibitory ratio (%) (300 nM) [1],Ki [2] [nM],Ki (Dopamine D2 receptor) [nM]
–,COc1cc(N2CCCCC2)cc(C)c1OCCCN1CCN(c2cccc3sccc23)CC1 [Example 1089],85.0,13.9,1
–,CN(C)C(=O)N1CCC(OCCCN2CCN(c3cccc4sccc34)CC2)CC1 [Example 1110],38.5,4.9,1.2
–,COc1cc(N2CCOC2=O)cc(CO)c1OCCCN1CCN(c2cccc3sccc23)CC1 [Example 1071],94.4,1.3,0.1
–,COC(=O)N1CCN(c2cc(C=O)c(OCCCN3CCN(c4cccc5sccc45)CC3)c(OC)c2)CC1 [Example 1086],98.6,5.8,1
–,COc1cc(C(=O)NCC(OC)OC)cc(C)c1OCCCN1CCN(c2cccc3sccc23)CC1 [Example 802],96.6,1.4,0.6
–,COc1cc(N2CCN(C(C)=O)CC2=O)cc(C)c1OCCCN1CCN(c2cccc3sccc23)CC1 [Example 1079],82.3,2.8,0.4
–,COC(=O)N1CCN(c2cc(C)c(OCCCN3CCN(c4cccc5sccc45)CC3)c(OC)c2)C(=O)C1 [Example 1080],95.6,3.4,0.6
–,COc1cc(N2CCN(C(C)=O)CC2)cc(C)c1OCCCN1CCN(c2cccc3sccc23)CC1 [Example 1083],96.3,1.5,0.3
–,CN(C)c1cc(OCCCCN2CCN(c3cccc4sccc34)CC2)n(C)n1 [Example 1138],67.2,19.7,1.4
116.5 to 118 °C,CNC(=O)c1cnc(OCCCN2CCN(c3cccc4sccc34)CC2)cn1 [Example 61],–,4.9,5
–,CC(=O)Nc1cc(OCCCN2CCN(c3cccc4sccc34)CC2)n(C)n1 [Example 1106],69.9,7.1,1
230 to 234 °C (dec.),"COc1cc(N(C)C(C)=O)cc(C)c1OCCCN1CCN(c2cccc3sccc23)CC1.Cl [Example 14, N-{4-[3-(4-benzo[b]thiophen-4-yl-piperazin-1-yl)propoxy]-3-methoxy-5-methylphenyl}-N-methylacetamide hydrochloride]",–,2.4,0.3
–,COc1cc(N2CCCC2)cc(C)c1OCCCN1CCN(c2cccc3sccc23)CC1 [Example 1076],87.8,12.4,1.2
132.5 to 133.5 °C,CNC(=O)c1ccc(OCCCN2CCN(c3cccc4sccc34)CC2)nc1 [Example 27],–,1,1.5
–,CN(C)C(=O)c1csc(OCCCN2CCN(c3cccc4sccc34)CC2)n1 [Example 1113],59.3,5,0.7
–,COc1cc(NC(=O)CN)cc(C)c1OCCCN1CCN(c2cccc3sccc23)CC1 [Example 1060],97.5,1.2,0.1
101 to 103 °C,COc1cc(CN(C)C)ccc1OCCCN1CCN(c2cccc3sccc23)CC1 [Example 301],–,0.4,0.2

SMILES,melting point,Serotonin uptake inhibitory ratio (%) (300 nM) [1],Ki [2] [nM],Ki (Dopamine D2 receptor) [nM]
"COc1cc(N(C)C)cc(C)c1OCCCN1CCN(c2cccc3sccc23)CC1.Cl [Example 15, 4-[3-(4-benzo[b]thiophen-4-yl-piperazin-1-yl)propoxy]-N,N-dimethyl-3-methoxy-5-methylaniline hydrochloride]",234.5 to 240.5 °C (dec.),95.3,5.9,0.4
COC(=O)N1CCN(c2cc(CO)c(OCCCN3CCN(c4cccc5sccc45)CC3)c(OC)c2)CC1 [Example 1087],128 to 130 °C,97.1,2.6,0.3

# Reference: patent US8071600B2, “Derivatives of 4-piperazin-1-yl-4-benzo[B]thiophene suitable for the treatment of CNS disorders” (Otsuka Pharmaceutical Co., Ltd., priority 2005, dated 2011)
